Results published in US6787525B1, “Glyceryl nucleotides, method for the production thereof and their use” (priority 1998, dated 2004).

Experiments:
PC-3 = experiment: In vitro cytostatic effect (SRB): PC-3, Prostate cancer
EKVX = experiment: In vitro cytostatic effect (SRB): EKVX, Lung cancer; conditions: 48-hour incubation
OVCAR-3 = experiment: In vitro cytostatic effect (SRB): OVCAR-3, Ovarian cancer
A549/ATCC = experiment: In vitro cytostatic effect (SRB): A549/ATCC, Lung cancer
HCT-116 = experiment: In vitro cytostatic effect (SRB): HCT-116, Intestinal cancer
SK-MEL-5 = experiment: In vitro cytostatic effect (SRB): SK-MEL-5, Melanoma
SF-268 = experiment: In vitro cytostatic effect (SRB): SF-268, Cancer of the central nervous system
HOP-62 = experiment: In vitro cytostatic effect (SRB): HOP-62, Lung cancer
RPMI-8226 = experiment: In vitro cytostatic effect (SRB): RPMI-8226, Leukemia
SNB-75 = experiment: In vitro cytostatic effect (SRB): SNB-75, Cancer of the central nervous system
OVCAR-5 = experiment: In vitro cytostatic effect (SRB): OVCAR-5, Ovarian cancer
CAKI-1 = experiment: In vitro cytostatic effect (SRB): CAKI-1, Kidney cancer
OVCAR-8 = experiment: In vitro cytostatic effect (SRB): OVCAR-8, Ovarian cancer
U251 = experiment: In vitro cytostatic effect (SRB): U251, Cancer of the central nervous system
OVCAR-4 = experiment: In vitro cytostatic effect (SRB): OVCAR-4, Ovarian cancer
HCT-15 = experiment: In vitro cytostatic effect (SRB): HCT-15, Intestinal cancer; conditions: 48-hour incubation
ACHN = experiment: In vitro cytostatic effect (SRB): ACHN, Kidney cancer
768-0 = experiment: In vitro cytostatic effect (SRB): 768-0, Kidney cancer
SK-OV-3 = experiment: In vitro cytostatic effect (SRB): SK-OV-3, Ovarian cancer
SK-MEL-2 = experiment: In vitro cytostatic effect (SRB): SK-MEL-2, Melanoma
DU-145 = experiment: In vitro cytostatic effect (SRB): DU-145, Prostate cancer
SK-MEL-28 = experiment: In vitro cytostatic effect (SRB): SK-MEL-28, Melanoma
UACC-257 = experiment: In vitro cytostatic effect (SRB): UACC-257, Melanoma
MDA-MB-231/ATCC = experiment: In vitro cytostatic effect (SRB): MDA-MB-231/ATCC, Breast cancer
MDA-MB-435 = experiment: In vitro cytostatic effect (SRB): MDA-MB-435, Breast cancer
TK-10 = experiment: In vitro cytostatic effect (SRB): TK-10, Kidney cancer
[1] = read-out: LC50, 48-hour incubation

With Nc1ccn(C2CCC(COP(=O)(O)OCC(O)COP(=O)(O)OCC3OC(n4cc(F)c(=O)[nH]c4=O)CC3O)O2)c(=O)n1 (racemic) [NSC 704533, 2′,3′-didesoxycytidylyl-(5′→1)-racglycerylyl-(3→5′)-5-fluoro-2′-desoxyuridine] the GI50 (PC-3; 48-hour incubation) was 2.28 µM, the TGI (PC-3; 48-hour incubation) was >1.00E − 04 mol/l and the CC50 (PC-3; [1]) was > 100 µM. The GI50 (EKVX) was > 100 µM, the TGI (EKVX) was >1.00E − 04 mol/l and the GI50 (OVCAR-3; 48-hour incubation) was 65.4 µM. The TGI (OVCAR-3; 48-hour incubation) was >1.00E − 04 mol/l, the CC50 (OVCAR-3; [1]) was > 100 µM and the GI50 (A549/ATCC; 48-hour incubation) was 0.0477 µM. For the same molecule, the TGI (A549/ATCC; 48-hour incubation) was >1.00E − 04 mol/l, the CC50 (A549/ATCC; [1]) was > 100 µM and the GI50 (HCT-116; 48-hour incubation) was 0.374 µM. The TGI (HCT-116; 48-hour incubation) was >1.00E − 04 mol/l, the CC50 (HCT-116; [1]) was > 100 µM and the GI50 (SK-MEL-5; 48-hour incubation) was 0.689 µM. The TGI (SK-MEL-5; 48-hour incubation) was >1.00E − 04 mol/l, the CC50 (SK-MEL-5; [1]) was > 100 µM and the GI50 (SF-268; 48-hour incubation) was < 0.01 µM. For the same molecule, the TGI (SF-268; 48-hour incubation) was >1.00E − 04 mol/l, the CC50 (SF-268; [1]) was > 100 µM and the GI50 (HOP-62; 48-hour incubation) was 0.902 µM. For the same molecule, the TGI (HOP-62; 48-hour incubation) was >1.00E − 04 mol/l, the CC50 (HOP-62; [1]) was > 100 µM and the GI50 (RPMI-8226; 48-hour incubation) was 11 µM. The TGI (RPMI-8226; 48-hour incubation) was >1.00E − 04 mol/l, the CC50 (RPMI-8226; [1]) was > 100 µM and the GI50 (SNB-75; 48-hour incubation) was 1.59 µM. The TGI (SNB-75; 48-hour incubation) was >1.00E − 04 mol/l, the CC50 (SNB-75; [1]) was > 100 µM and the GI50 (OVCAR-5; 48-hour incubation) was 12.6 µM. The TGI (OVCAR-5; 48-hour incubation) was >1.00E − 04 mol/l, the CC50 (OVCAR-5; [1]) was > 100 µM and the GI50 (CAKI-1; 48-hour incubation) was 1.44 µM. For the same molecule, the TGI (CAKI-1; 48-hour incubation) was >1.00E − 04 mol/l, the CC50 (CAKI-1; [1]) was > 100 µM and the GI50 (OVCAR-8; 48-hour incubation) was 0.141 µM. The TGI (OVCAR-8; 48-hour incubation) was >1.00E − 04 mol/l, the CC50 (OVCAR-8; [1]) was > 100 µM and the GI50 (U251; 48-hour incubation) was 1.26 µM. The TGI (U251; 48-hour incubation) was >1.00E − 04 mol/l, the CC50 (U251; [1]) was > 100 µM and the GI50 (OVCAR-4; 48-hour incubation) was > 100 µM. For the same molecule, the TGI (OVCAR-4; 48-hour incubation) was >1.00E − 04 mol/l, the CC50 (OVCAR-4; [1]) was > 100 µM and the GI50 (HCT-15) was 17.9 µM. The TGI (HCT-15) was >1.00E − 04 mol/l, the GI50 (ACHN; 48-hour incubation) was < 0.01 µM and the TGI (ACHN; 48-hour incubation) was >1.00E − 04 mol/l. For the same molecule, the CC50 (ACHN; [1]) was > 100 µM, the GI50 (768-0; 48-hour incubation) was > 100 µM and the TGI (768-0; 48-hour incubation) was >1.00E − 04 mol/l. The CC50 (768-0; [1]) was > 100 µM, the GI50 (SK-OV-3; 48-hour incubation) was 44.3 µM and the TGI (SK-OV-3; 48-hour incubation) was >1.00E − 04 mol/l. For the same molecule, the CC50 (SK-OV-3; [1]) was > 100 µM, the GI50 (SK-MEL-2; 48-hour incubation) was 79.4 µM and the TGI (SK-MEL-2; 48-hour incubation) was >1.00E − 04 mol/l. The CC50 (SK-MEL-2; [1]) was > 100 µM, the GI50 (DU-145; 48-hour incubation) was 0.158 µM and the TGI (DU-145; 48-hour incubation) was >1.00E − 04 mol/l. For the same molecule, the CC50 (DU-145; [1]) was > 100 µM, the GI50 (SK-MEL-28; 48-hour incubation) was 37.9 µM and the TGI (SK-MEL-28; 48-hour incubation) was >1.00E − 04 mol/l. The CC50 (SK-MEL-28; [1]) was > 100 µM, the GI50 (UACC-257; 48-hour incubation) was > 100 µM and the TGI (UACC-257; 48-hour incubation) was >1.00E − 04 mol/l. The CC50 (UACC-257; [1]) was > 100 µM, the GI50 (MDA-MB-231/ATCC; 48-hour incubation) was 95.5 µM and the TGI (MDA-MB-231/ATCC; 48-hour incubation) was >1.00E − 04 mol/l. The CC50 (MDA-MB-231/ATCC; [1]) was > 100 µM, the GI50 (MDA-MB-435; 48-hour incubation) was 4.76 µM and the TGI (MDA-MB-435; 48-hour incubation) was >1.00E − 04 mol/l. The CC50 (MDA-MB-435; [1]) was > 100 µM, the GI50 (TK-10; 48-hour incubation) was 6.25 µM and the TGI (TK-10; 48-hour incubation) was >1.00E − 04 mol/l. For the same molecule, the CC50 (TK-10; [1]) was > 100 µM.
